Laboratory results as given in patent US10058550B2, “Methods of treating heart failure” (priority 2015, dated 2018).
pEC50: −log10 of the molar value.

biological target: human APJ receptor (Homo sapiens (Human), UniProt P35414); assay: biochemical; assay type: biochemical; conditions: read-out: Activity hAPJ SPA EC50 IP
Protocol: The human APJ receptor was cloned by polymerase chain reaction and the gene encoding the receptor was subcloned in pFLAG-CMV™-3 expression vector (Sigma, Saint Louis, Mo. USA) in-house at Amgen. A GTPγS binding assay was performed on membranes prepared from CHO cells stably expressing human APJ receptor. The optimum experimental conditions for the concentrations of GDP, MgCl2, and NaCl in the assay buffer were initially determined. The assay was performed in assay buffer [20 mM HEPES, pH 7.5, 5 mM MgCl2, and 0.1% (w/v) BSA with 200 mM NaCl, 3 μM GDP] and membranes expressing human APJ receptor/well along with WGA PS beads. The reaction was initiated by addition of 0.2 nM [^35S]GTPγS (Perkin Elmer Life and Analytical Sciences, Waltham USA) in the absence or presence of various ligands and incubated at RT for 90 min. […] All the results presented are means of several independent experiments and analyzed by non-linear regression methods using commercially available program Prism (GraphPad, San Diego, Calif.) to obtain EC50 detailed in Table 58.

Chain of human APJ receptor (P35414 whole entry): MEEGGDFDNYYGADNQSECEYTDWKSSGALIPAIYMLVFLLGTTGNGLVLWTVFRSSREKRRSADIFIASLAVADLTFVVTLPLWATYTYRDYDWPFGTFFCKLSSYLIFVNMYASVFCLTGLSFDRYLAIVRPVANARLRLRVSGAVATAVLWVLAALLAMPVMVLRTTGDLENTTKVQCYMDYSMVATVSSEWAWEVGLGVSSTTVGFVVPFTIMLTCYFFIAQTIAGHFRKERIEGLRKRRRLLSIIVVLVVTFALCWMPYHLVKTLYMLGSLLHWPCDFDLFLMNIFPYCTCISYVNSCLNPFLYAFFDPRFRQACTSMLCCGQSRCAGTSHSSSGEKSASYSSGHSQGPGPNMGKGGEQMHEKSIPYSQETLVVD

Structure (SMILES) | pEC50
COc1cccc(-c2nnc(NS(=O)(=O)C[C@H](O)c3ccc(F)cc3S(C)(=O)=O)n2-c2c(OC)cccc2OC)n1 (single isomer, unassigned) [Example 268.0, (R)—N-(4-(2,6-dimethoxyphenyl)-5-(6-methoxypyridin-2-yl)-4H-1,2,4-triazol-3-yl)-2-(4-fluoro-2-(methylsulfonyl)phenyl)-2-hydroxyethanesulfonamide or (S)—N-(4-(2,6-dimethoxyphenyl)-5-(6-methoxypyridin-2-yl)-4H-1,2,4-triazol-3-yl)-2-(4-fluoro-2-(methylsulfonyl)phenyl)-2-hydroxyethanesulfonamide] | 9.77
COc1cccc(-c2nnc(NS(=O)(=O)[C@@H](C)[C@H](O)c3ccc(F)cc3F)n2-c2c(OC)cccc2OC)n1 (single isomer, unassigned) [Example 279.0] | 7.55
COc1cccc(-c2nnc(NS(=O)(=O)[C@@H](C)[C@H](O)c3ccc(F)cc3F)n2-c2c(OC)cccc2OC)n1 (single isomer, unassigned) [Example 280.0] | 9.57
COc1cccc(-c2nnc(NS(=O)(=O)[C@@H](C)[C@H](O)c3ccc(F)cc3F)n2-c2c(OC)cccc2OC)n1 (single isomer, unassigned) [Example 281.0] | 7.37
COc1cccc(-c2nnc(NS(=O)(=O)[C@@H](C)[C@H](O)c3ccc(F)cc3F)n2-c2c(OC)cccc2OC)n1 (single isomer, unassigned) [Example 282.0] | 9.15
COc1cccc(-c2nnc(NS(=O)(=O)[C@@H](C)[C@H](O)c3ccc(F)cc3)n2-c2c(OC)cccc2OC)n1 (single isomer, unassigned) [Example 284.0] | 7.89
COc1cccc(-c2nnc(NS(=O)(=O)[C@@H](C)[C@H](O)c3ccc(F)cc3)n2-c2c(OC)cccc2OC)n1 (single isomer, unassigned) [Example 285.0] | 9.24
COc1cccc(-c2nnc(NS(=O)(=O)[C@@H](C)[C@H](O)c3ccc(F)cc3)n2-c2c(OC)cccc2OC)n1 (single isomer, unassigned) [Example 286.0] | 9.17
COc1cccc(-c2nnc(NS(=O)(=O)[C@@H](C)[C@H](O)c3ccc(F)cc3)n2-c2c(OC)cccc2OC)n1 (single isomer, unassigned) [Example 287.0] | 7.85
COc1cccc(-c2nnc(NS(=O)(=O)[C@@H](C)[C@H](O)c3ccc(F)cc3S(C)(=O)=O)n2-c2c(OC)cccc2OC)n1 (single isomer, unassigned) [Example 289.0, (1R,2S)—N-(4-(2,6-dimethoxyphenyl)-5-(6-methoxypyridin-2-yl)-4H-1,2,4-triazol-3-yl)-1-(4-fluoro-2-(methylsulfonyl)phenyl)-1-hydroxypropane-2-sulfonamide or (1S,2R)—N-(4-(2,6-dimethoxyphenyl)-5-(6-methoxypyridin-2-yl)-4H-1,2,4-triazol-3-yl)-1-(4-fluoro-2-(methylsulfonyl)phenyl)-1-hydroxypropane-2-sulfonamide] | 7.96
COc1cccc(OC)c1-n1c(NS(=O)(=O)[C@@H](C)[C@H](O)c2nc(C)c(C)s2)nnc1-c1cncc(C)c1 (single isomer, unassigned) [Example 291.0] | 8.74
COc1cccc(OC)c1-n1c(NS(=O)(=O)[C@@H](C)[C@H](O)c2nc(C)c(C)s2)nnc1-c1cncc(C)c1 (single isomer, unassigned) [Example 292.0] | 9.05
COc1cccc(OC)c1-n1c(NS(=O)(=O)[C@@H](C)[C@H](O)c2nc(C)c(C)s2)nnc1-c1cncc(C)c1 (single isomer, unassigned) [Example 293.0] | 7.89
COc1cccc(OC)c1-n1c(NS(=O)(=O)[C@@H](C)[C@H](O)c2nc(C)c(C)s2)nnc1-c1cncc(C)c1 (single isomer, unassigned) [Example 294.0] | 7.96
COc1cccc(OC)c1-n1c(NS(=O)(=O)[C@@H](C)[C@H](O)c2nc(C)c(C)s2)nnc1-c1cncc(C)c1 (single isomer, unassigned) [Example 295.0] | 7.01
COc1cccc(OC)c1-n1c(NS(=O)(=O)[C@@H](C)[C@H](O)c2nc(C)c(C)s2)nnc1-c1cncc(C)c1 (single isomer, unassigned) [Example 296.0] | 8.33

Structure (SMILES) | pEC50
COc1cnc([C@@H](O)[C@H](C)S(=O)(=O)Nc2nnc(-c3cncc(C)c3)n2-c2c(OC)cccc2OC)cn1 (single isomer, unassigned) [Example 305.0] | 9.41
COc1cnc([C@@H](O)[C@H](C)S(=O)(=O)Nc2nnc(-c3cncc(C)c3)n2-c2c(OC)cccc2OC)cn1 (single isomer, unassigned) [Example 306.0] | 7.70
COc1cnc([C@@H](O)[C@H](C)S(=O)(=O)Nc2nnc(-c3cncc(C)c3)n2-c2c(OC)cccc2OC)cn1 (single isomer, unassigned) [Example 308.0] | 7.12
COc1cnc([C@@H](O)[C@H](C)S(=O)(=O)Nc2nnc(-c3cncc(C)c3)n2-c2c(OC)cccc2OC)cn1 (single isomer, unassigned) [Example 309.0] | 8.02
COc1cnc([C@@H](OC)[C@H](C)S(=O)(=O)Nc2nnc(-c3cncc(C)c3)n2-c2c(OC)cccc2OC)cn1 (single isomer, unassigned) [Example 311.0] | 9.59
COc1cnc([C@@H](OC)[C@H](C)S(=O)(=O)Nc2nnc(-c3cncc(C)c3)n2-c2c(OC)cccc2OC)cn1 (single isomer, unassigned) [Example 312.0] | 7.57
COc1cccc(-c2nnc(NS(=O)(=O)C[C@H](O)c3ccc(F)cn3)n2-c2c(OC)cccc2OC)n1 (single isomer, unassigned) [Example 316.0, (2R)—N-(4-(2,6-dimethoxyphenyl)-5-(6-methoxy-2-pyridinyl)-4H-1,2,4-triazol-3-yl)-2-(5-fluoro-2-pyridinyl)-2-hydroxyethanesulfonamide or (2S)—N-(4-(2,6-dimethoxyphenyl)-5-(6-methoxy-2-pyridinyl)-4H-1,2,4-triazol-3-yl)-2-(5-fluoro-2-pyridinyl)-2-hydroxyethanesulfonamide] | 9.30
COc1cccc(-c2nnc(NS(=O)(=O)C[C@H](O)c3ccc(F)cn3)n2-c2c(OC)cccc2OC)n1 (single isomer, unassigned) [Example 317.0, (2R)—N-(4-(2,6-dimethoxyphenyl)-5-(6-methoxy-2-pyridinyl)-4H-1,2,4-triazol-3-yl)-2-(5-fluoro-2-pyridinyl)-2-hydroxyethanesulfonamide or (2S)—N-(4-(2,6-dimethoxyphenyl)-5-(6-methoxy-2-pyridinyl)-4H-1,2,4-triazol-3-yl)-2-(5-fluoro-2-pyridinyl)-2-hydroxyethanesulfonamide] | 9.28
COc1cccc(-c2nnc(NS(=O)(=O)C[C@H](OC)c3ccc(F)cn3)n2-c2c(OC)cccc2OC)n1 (single isomer, unassigned) [Example 329.0, (2R)—N-(4-(2,6-dimethoxyphenyl)-5-(6-methoxy-2-pyridinyl)-4H-1,2,4-triazol-3-yl)-2-(5-fluoro-2-pyridinyl)-2-methoxyethanesulfonamide or (2S)—N-(4-(2,6-dimethoxyphenyl)-5-(6-methoxy-2-pyridinyl)-4H-1,2,4-triazol-3-yl)-2-(5-fluoro-2-pyridinyl)-2-methoxyethanesulfonamide] | 9.64
COc1cccc(-c2nnc(NS(=O)(=O)C[C@H](OC)c3ccc(F)cn3)n2-c2c(OC)cccc2OC)n1 (single isomer, unassigned) [Example 330.0, (2R)—N-(4-(2,6-dimethoxyphenyl)-5-(6-methoxy-2-pyridinyl)-4H-1,2,4-triazol-3-yl)-2-(5-fluoro-2-pyridinyl)-2-methoxyethanesulfonamide or (2S)—N-(4-(2,6-dimethoxyphenyl)-5-(6-methoxy-2-pyridinyl)-4H-1,2,4-triazol-3-yl)-2-(5-fluoro-2-pyridinyl)-2-methoxyethanesulfonamide] | 9.52
COc1cccc(-c2nnc(NS(=O)(=O)C[C@H](O)c3ccc(C#N)cn3)n2-c2c(OC)cccc2OC)n1 (single isomer, unassigned) [Example 332.0, (R)-2-(5-cyanopyridin-2-yl)-N-(4-(2,6-dimethoxyphenyl)-5-(6-methoxypyridin-2-yl)-4H-1,2,4-triazol-3-yl)-2-hydroxyethanesulfonamide or (S)-2-(5-cyanopyridin-2-yl)-N-(4-(2,6-dimethoxyphenyl)-5-(6-methoxypyridin-2-yl)-4H-1,2,4-triazol-3-yl)-2-hydroxyethanesulfonamide] | 9.25
COc1cccc(OC)c1-n1c(NS(=O)(=O)[C@@H](C)[C@@H](O)c2ccc(C#N)cc2F)nnc1-c1cncc(C)c1 (single isomer, unassigned) [Example 343.0] | 7.19
COc1cccc(OC)c1-n1c(NS(=O)(=O)[C@@H](C)[C@@H](O)c2ccc(C#N)cc2F)nnc1-c1cncc(C)c1 (single isomer, unassigned) [Example 344.0] | 9.22
COc1cccc(OC)c1-n1c(NS(=O)(=O)[C@@H](C)[C@H](OC)c2ccc(F)cn2)nnc1-c1cncc(C)c1 (single isomer, unassigned) [Example 351.0] | 9.06
COc1cccc(OC)c1-n1c(NS(=O)(=O)[C@@H](C)[C@H](OC)c2ccc(F)cn2)nnc1-c1cncc(C)c1 (single isomer, unassigned) [Example 352.0] | 9.49
COc1cccc(OC)c1-n1c(NS(=O)(=O)[C@@H](C)[C@H](OC)c2ccc(F)cn2)nnc1-c1cncc(C)c1 (single isomer, unassigned) [Example 353.0] | 7.00
